biological target: T1, PI3Kγ (Homo sapiens, UniProt P48736); experiment: PI3Kγ In Vitro Kinase Assay; format: biochemical; details: purified recombinant p101/p110 γ protein with G protein β1/γ2 subunits; 20 μM ATP, 25 μM PIP2; 20 minutes at room temperature; radioactive PIP3 readout
T1 construct: HA; made in house; host or cells: Spodoptera frugiperda (Sf9) cells, baculovirus co-infection
Description: Spodtera frugiperda cells, grown in ESF921 media, were coinfected with baculovirus expressing a glu-tagged p101 and baculovirus expressing an HA-tagged p110γ, at a 3:1 ratio of p101 baculovirus to p110γ baculovirus. Sf9 cells were grown to 1×10^7 total cells/mL in 10 L bioreactors and harvested 48-72 hours post infection. Samples of infected cells were then tested for expression of p101/p110 γ PI3 kinase by immunoprecipitation and Western Blot analysis methods (see below). To purify PI3Kγ, 4 volumes of room temperature hypotonic lysis buffer (1 mM MgCl2, 1 mM DTT, 5 mM EGTA, 1 mM Pefabloc, 0.5 μM aprotinin, 5 μM leupeptin, 2 μM pepstatin, 5 μM E64, pH 8) per gram of cell paste, was poured onto frozen cell pellets with stirring, then lysed in a nitrogen “bomb” at 400 psi (599HC […], Parr Instrument Co, Moline, Ill.). NaCl was added to 150 mM, and sodium cholate was added to 1% and mixed for another 45 minutes. The lysates were clarified by centrifugation for 25 minutes at 14,000 rpm. The lysates were then loaded over anti-glu-linked Protein-G Sepaharose beads (Covance Research Products, Richmond, Calif.) using 20 mL resin/50 g cell paste. The column was washed with 15 volumes of wash buffer (1 mM DTT, 0.2 mM EGTA, 1 mM Pefabloc, 0.5 μM aprotinin, 5 μM leupeptin, 2 μM pepstatin, 5 μM E64, 150 mM NaCl, 1% sodium cholate, pH 8). PI3Kγ was eluted with 6 column volumes of wash buffer that contain 100 μg/mL of a peptide that competes for binding of the glu tag. The column fractions with the eluted protein (determined by taking OD280 readings) were collected and dialyzed in 0.2 mM EGTA, 1 mM DTT, 1 mM Pefabloc, 5 μM leupeptin, 0.5% sodium cholate, 150 mM NaCl, and 50% glycerol, pH 8. The fractions were stored at -80° C. until further use. Spodtera frugiperda cells were coinfected with baculovirus expressing a glu-tagged G protein β1 and baculovirus expressing a G protein β2, at a 1:1 ratio of glu-tagged G protein β1 baculovirus to G protein β2 baculovirus. Sf9 cells are grown in 10 L bioreactors and harvested 48-72 hours post infection. Samples of infected cells were tested for G protein β1/β2 expression by Western Blot analysis, as described below. Cell lysates were homogenized and loaded onto a column of glu-tagged beads as in Biological Example 1 and competed off the column with a glu peptide and processed as described in Biological Example 1. The inhibitory properties of the compounds in Table 1 were assayed in an in vitro PI3K assay. In a 96-well polypropylene plate, each well was spotted with 2 μL of 50 times the desired final concentration of compound in DMSO. Purified recombinant p101/p110 γ protein (0.03 μg; 2.7 nM) and G protein β1/γ2 subunits (0.09 μg; 57.7 nM) for each reaction was combined in the assay buffer (30 mM HEPES, 100 mM NaCl, 1 mM EGTA, and 1 mM DTT). ATP and [γ-^32P-ATP] (0.09 μCi) were added to this mixture so that the final ATP concentration in the reaction was 20 μM. Lipid micelles were formed by sonicating phosphatidylinositol-4,5-diphosphate (PIP2), phosphatidylethanolamine (PE), and Na-cholate in the assay buffer for 10 minutes, adding MgCl2 and incubating on ice for 20 minutes, for final concentrations of 25 μM PIP2, 300 μM PE, 0.02% Na-cholate, and 10 mM MgCl2 in the reaction. The reactions were started by adding equal volumes lipid and enzyme mixture in a total volume of 50 μL, allowed to run for 20 minutes at room temperature, and stopped with 100 μL 75 mM H3PO4. The lipid product was transferred to a glass fiber filter plate and washed with 75 mM H3PO4 several times. The presence of radioactive lipid product (PIP3) was measured by adding Wallac Optiphase mix to each well and counting in a Wallac 1450 Trilux plate reader (PerkinElmer Life Sciences Inc., Boston, Mass. 02118). The IC50 for each compound tested is reported in μM in Table 1: […]

T1 sequence (P48736 whole entry, species assumed): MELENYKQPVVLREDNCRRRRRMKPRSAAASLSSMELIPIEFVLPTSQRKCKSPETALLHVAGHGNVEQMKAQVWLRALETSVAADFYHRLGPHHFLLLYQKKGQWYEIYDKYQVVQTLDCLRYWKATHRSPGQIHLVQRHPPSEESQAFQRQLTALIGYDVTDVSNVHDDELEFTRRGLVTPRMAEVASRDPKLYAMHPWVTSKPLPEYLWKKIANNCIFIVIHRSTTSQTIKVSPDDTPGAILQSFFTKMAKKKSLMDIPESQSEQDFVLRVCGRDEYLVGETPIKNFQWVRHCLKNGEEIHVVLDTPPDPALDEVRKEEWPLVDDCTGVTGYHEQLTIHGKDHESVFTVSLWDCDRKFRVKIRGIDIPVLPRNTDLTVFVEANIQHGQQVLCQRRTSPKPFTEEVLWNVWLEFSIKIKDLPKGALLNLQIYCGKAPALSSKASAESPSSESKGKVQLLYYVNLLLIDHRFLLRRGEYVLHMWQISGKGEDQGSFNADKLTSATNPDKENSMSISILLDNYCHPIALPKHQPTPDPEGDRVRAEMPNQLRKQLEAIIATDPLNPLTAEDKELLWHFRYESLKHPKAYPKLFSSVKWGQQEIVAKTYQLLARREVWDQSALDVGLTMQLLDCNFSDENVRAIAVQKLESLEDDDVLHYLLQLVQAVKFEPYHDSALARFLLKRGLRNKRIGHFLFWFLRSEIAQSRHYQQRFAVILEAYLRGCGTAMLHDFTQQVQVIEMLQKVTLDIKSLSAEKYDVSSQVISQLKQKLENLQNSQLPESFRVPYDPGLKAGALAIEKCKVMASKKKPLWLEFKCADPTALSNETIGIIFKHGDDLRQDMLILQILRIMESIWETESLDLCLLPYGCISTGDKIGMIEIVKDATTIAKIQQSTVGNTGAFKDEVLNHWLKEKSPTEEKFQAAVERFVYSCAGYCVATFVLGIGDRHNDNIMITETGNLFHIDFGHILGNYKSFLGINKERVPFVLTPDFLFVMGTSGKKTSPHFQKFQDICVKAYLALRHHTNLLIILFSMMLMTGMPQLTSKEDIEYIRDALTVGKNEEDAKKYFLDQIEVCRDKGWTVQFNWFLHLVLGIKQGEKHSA
T1 sequence (Q8WYR1 whole entry partner, species assumed): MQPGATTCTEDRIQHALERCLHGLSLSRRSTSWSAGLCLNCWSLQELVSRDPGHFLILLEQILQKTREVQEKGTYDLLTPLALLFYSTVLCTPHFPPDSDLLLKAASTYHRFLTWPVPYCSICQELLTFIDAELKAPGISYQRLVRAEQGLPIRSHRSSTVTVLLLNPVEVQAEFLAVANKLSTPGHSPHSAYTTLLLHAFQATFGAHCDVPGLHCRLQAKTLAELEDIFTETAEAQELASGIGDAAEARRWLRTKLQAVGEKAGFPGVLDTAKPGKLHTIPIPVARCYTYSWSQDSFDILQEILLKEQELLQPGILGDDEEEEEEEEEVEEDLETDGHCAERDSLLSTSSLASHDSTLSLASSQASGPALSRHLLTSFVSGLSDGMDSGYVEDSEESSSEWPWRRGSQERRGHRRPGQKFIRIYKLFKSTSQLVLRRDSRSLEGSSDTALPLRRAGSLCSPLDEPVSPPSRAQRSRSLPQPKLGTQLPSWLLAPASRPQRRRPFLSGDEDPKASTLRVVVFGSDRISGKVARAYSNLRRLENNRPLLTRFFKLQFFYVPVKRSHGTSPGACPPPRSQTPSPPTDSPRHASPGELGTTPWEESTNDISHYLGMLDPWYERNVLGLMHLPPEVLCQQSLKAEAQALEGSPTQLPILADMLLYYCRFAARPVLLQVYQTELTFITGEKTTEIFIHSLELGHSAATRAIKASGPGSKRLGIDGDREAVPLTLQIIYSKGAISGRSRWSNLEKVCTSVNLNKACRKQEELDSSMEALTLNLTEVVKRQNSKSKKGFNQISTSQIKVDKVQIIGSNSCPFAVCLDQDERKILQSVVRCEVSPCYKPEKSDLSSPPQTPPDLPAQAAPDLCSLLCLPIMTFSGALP

Point of comparison: `COc1cc2sc(C(=O)Nc3nnn[nH]3)c(OC3CCC(C4CCCCC4)CC3)c2cc1OC` (stereo not drawn) [Example 30, 3-(Bicyclohexyl-4-yloxy)-5,6-dimethoxy-benzo[b]thiophene-2-carboxylic acid (1H-tetrazol-5-yl)-amide], IC50 110 nM. Against it:
- COc1cc2sc(C(=O)Nc3nnn[nH]3)c(OC3CCCCC3C)c2cc1OC (stereo not drawn) [Example 26, 5,6-Dimethoxy-3-(2-methyl-cyclohexyloxy)-benzo[b]thiophene-2-carboxylic acid (1H-tetrazol-5-yl)-amide] — within 1.5-fold, 101 nM
- COc1cc2sc(C(=O)Nc3nnn[nH]3)c(OC3CCOC3)c2cc1OC (stereo not drawn) [Example 27, 5,6-Dimethoxy-3-(tetrahydro-furan-3-yloxy)-benzo[b]thiophene-2-carboxylic acid (1H-tetrazol-5-yl)-amide] — 5.2-fold higher, 575 nM
- CCC1(COc2c(C(=O)Nc3nnn[nH]3)sc3cc(OC)c(OC)cc23)COC1 [Example 28, 3-(3-Ethyl-oxetan-3-ylmethoxy)-5,6dimethoxy-benzo[b]thiophene-2-carboxylic acid (1H-tetrazol-5-yl)-amide] — 2.2-fold higher, 245 nM
- COc1cc2sc(C(=O)Nc3nnn[nH]3)c(OCC3C4CCC(C4)C3C)c2cc1OC (stereo not drawn) [Example 29, 5,6 Dimethoxy-3-(3-methyl-bicyclo[2.2.1]hept-2-ylmethoxy)-benzo[b]thiophene-2-carboxylic acid (1H-tetrazol-5-yl)-amide] — 7.9-fold lower, 14 nM
- COc1cc2sc(C(=O)Nc3nnn[nH]3)c(OC3CCC(C)C3)c2cc1OC (stereo not drawn) [Example 31, 5,6-Dimethoxy-3-(3-methyl-cyclopentyloxy)-benzo[b]thiophene-2-carboxylic acid (1H-tetrazol-5-yl)-amide] — 1.7-fold lower, 63 nM
- COc1cc2sc(C(=O)Nc3nnn[nH]3)c(OCC3CC=CCC3)c2cc1OC (stereo not drawn) [Example 32, 3-(Cyclohex-3-enylmethoxy)-5,6-dimethoxy-benzo[b]thiophene-2-carboxylic acid (1H-tetrazol-5-yl)-amide] — within 1.5-fold, 101 nM
- COc1cc2sc(C(=O)Nc3nnn[nH]3)c(OC3CCCCCCC3)c2cc1OC [Example 33, 3-Cyclooctyloxy-5,6-dimethoxy-benzo[b]thiophene-2-carboxylic acid (1H-tetrazol-5-yl)-amide] — 2.3-fold lower, 48 nM
- COc1cc2sc(C(=O)Nc3nnn[nH]3)c(OCC3CC3)c2cc1OC [Example 35, 3-Cyclopropylmethoxy-5,6-dimethoxy-benzo[b]thiophene-2-carboxylic acid (1H-tetrazol-5-yl)-amide] — 3.2-fold higher, 350 nM
- COc1cc2sc(C(=O)Nc3nnn[nH]3)c(OCCCC3CCCCC3)c2cc1OC [Example 36, 3-(3-Cyclohexyl-propoxy)-5,6-dimethoxy-benzo[b]thiophene-2-carboxylic acid (1H-tetrazol-5-yl)-amide] — 4.8-fold lower, 23 nM
- COc1cc2sc(C(=O)Nc3nnn[nH]3)c(OCC3(C)CC3)c2cc1OC [Example 37, 5,6-Dimethoxy-3-(1-methyl-cyclopropylmethoxy)-benzo[b]thiophene-2-carboxylic acid (1H-tetrazol-5-yl)-amide] — 2.2-fold lower, 51 nM
- COc1cc2sc(C(=O)Nc3nnn[nH]3)c(OCC3CCC3)c2cc1OC [Example 38, 3-Cyclobutylmethoxy-5,6-dimethoxy-benzo[b]thiophene-2-carboxylic acid (1H-tetrazol-5-yl)-amide] — 1.5-fold lower, 72 nM
- COc1cc2sc(C(=O)Nc3nnn[nH]3)c(OC3CCCCCC3)c2cc1OC [Example 39, 3-Cycloheptyloxy-5,6-dimethoxy-benzo[b]thiophene-2-carboxylic acid (1H-tetrazol-5-yl)-amide] — 3-fold lower, 37 nM
- COc1cc2sc(C(=O)Nc3nnn[nH]3)c(OC3CCC3)c2cc1OC [Example 40, 3-Cyclobutoxy-5,6-dimethoxy-benzo[b]thiophene-2-carboxylic acid (1H-tetrazol-5-yl)-amide] — within 1.5-fold, 92 nM
- COc1cc2sc(C(=O)Nc3nnn[nH]3)c(OC3CCOCC3)c2cc1OC [Example 41, 5,6-Dimethoxy-3-(tetrahydro-pyran-4-yloxy)-benzo[b]thiophene-2-carboxylic acid (1H-tetrazol-5-yl)-amide] — within 1.5-fold, 83 nM
- COc1cc2sc(C(=O)Nc3nnn[nH]3)c(OCC3CCCC3)c2cc1OC [Example 43, 3-Cyclopentylmethoxy-5,6-dimethoxy-benzo[b]thiophene-2-carboxylic acid (1H-tetrazol-5-yl)-amide] — within 1.5-fold, 101 nM
- CCC(Oc1c(C(=O)Nc2nnn[nH]2)sc2cc(OC)c(OC)cc12)C1CCCCC1 (stereo not drawn) [Example 44, 3-(1-Cyclohexyl-propoxy)-5,6-dimethoxy-benzo[b]thiophene-2-carboxylic acid (1H-tetrazol-5-yl)-amide] — within 1.5-fold, 160 nM
- COc1cc2sc(C(=O)Nc3nnn[nH]3)c(OC3CCC(C)C(C)C3)c2cc1OC (stereo not drawn) [Example 45, 3-(3,4-Dimethyl-cyclohexyloxy)-5,6-dimethoxy-benzo[b]thiophene-2-carboxylic acid (1H-tetrazol-5-yl)-amide] — 2.1-fold lower, 52 nM
- COc1cc2sc(C(=O)Nc3nnn[nH]3)c(OC3CC(C)CC(C)C3)c2cc1OC (stereo not drawn) [Example 46, 3-(3,5-Dimethyl-cyclohexyloxy)-5,6-dimethoxy-benzo[b]thiophene-2-carboxylic acid (1H-tetrazol-5-yl)-amide] — 3.7-fold lower, 30 nM
- COc1cc2sc(C(=O)Nc3nnn[nH]3)c(OC3CCC4CCCCC4C3)c2cc1OC (stereo not drawn) [Example 47, 3-(Decahydro-naphthalen-2-yloxy)-5,6-dimethoxy-benzo[b]thiophene-2-carboxylic acid (1H-tetrazol-5-yl)-amide] — within 1.5-fold, 112 nM
- COc1cc2sc(C(=O)Nc3nnn[nH]3)c(OC3CC(C)CC(C)(C)C3)c2cc1OC (stereo not drawn) [Example 48, 5,6-Dimethoxy-3-(3,3,5-trimethyl-cyclohexyloxy)-benzo[b]thiophene-2-carboxylic acid (1H-tetrazol-5-yl)-amide] — 1.5-fold higher, 170 nM
- COc1cc2sc(C(=O)Nc3nnn[nH]3)c(OC3CCN(Cc4ccccc4)CC3)c2cc1OC [Example 49, 3-(1-Benzyl-piperidin-4-yloxy)-5,6-dimethoxy-benzo[b]thiophene-2-carboxylic acid (1H-tetrazol-5-yl)-amide] — 23-fold higher, 2550 nM
- COc1cc2sc(C(=O)Nc3nnn[nH]3)c(OC3CCCC3)c2cc1OC [Example 50, 3-Cyclopentyloxy-5,6-dimethoxy-benzo[b]thiophene-2-carboxylic acid (1H-tetrazol-5-yl)-amide] — within 1.5-fold, 120 nM
- COc1cc2sc(C(=O)Nc3nn[nH]n3)c(OC3CCCCC3)c2cc1C [Example 51, 3-Cyclohexyloxy-6-methoxy-5-methyl-benzo[b]thiophene-2-carboxylic acid (2H-tetrazol-5-yl)-amide] — 5.5-fold lower, 20 nM

Source: patent US20050020630A1, “Cycloalkyl and heterocycloalkyl substituted benzothiophenes as therapeutic agents” (priority 2003, published 2005)
